Experiment: method code SF-HPLC, from DOI: 10.1248/cpb.46.274

logP	Compound
3.13	CC(=O)/C=C/c1ccc(C(F)(F)F)cc1
2.45	N#Cc1cccc(/C=C/C(=O)C(F)(F)F)c1
2.85	CC(=O)/C=C/c1ccccc1Cl
2.66	O=C(C=Cc1cccc([N+](=O)[O-])c1)C(F)(F)F
2.73	CCOc1ccc(C=CC(C)=O)cc1
3.26	CCc1ccc(/C=C/C(C)=O)cc1
2.25	COc1ccc(/C=C/C(C)=O)cc1
2.66	CC(=O)/C=C/c1ccc(N(C)C)cc1
2.81	CC(=O)/C=C/c1cccc(Cl)c1
3.39	COc1ccccc1C=CC(=O)C(F)(F)F
3.63	O=C(C=Cc1ccc(Cl)cc1)C(F)(F)F
1.63	CC(=O)C=Cc1ccc(OC(C)=O)cc1
3.33	COc1ccc(C=CC(=O)C(F)(F)F)cc1
3.03	CC(=O)/C=C/c1cccc(C(F)(F)F)c1
3.02	CC(=O)/C=C/c1cccc(Br)c1
2.65	CC(=O)C=Cc1ccc(C)cc1
1.59	CC(=O)C=Cc1cccc(C#N)c1
3.14	CC(=O)/C=C/c1ccccc1C(F)(F)F

logP	Compound
3.03	CC(=O)C=Cc1ccc(Br)cc1
2.25	CC(=O)C=Cc1cccc(F)c1
3.05	COc1cccc(C=CC(=O)C(F)(F)F)c1
1.88	CC(=O)/C=C/c1cccc([N+](=O)[O-])c1
3.58	O=C(C=Cc1cccc(Cl)c1)C(F)(F)F
2.42	N#Cc1ccc(C=CC(=O)C(F)(F)F)cc1
2.42	COc1ccccc1/C=C/C(C)=O
3.01	O=C(C=Cc1ccccc1)C(F)(F)F
2.19	CC(=O)/C=C/c1ccccc1O
3.5	O=C(C=Cc1ccccc1Cl)C(F)(F)F
2.34	CC(=O)/C=C/c1ccccc1F
1.86	CC(=O)/C=C/c1ccc(O)cc1
2.22	CC(=O)C=Cc1ccc(F)cc1
2.6	CC(=O)/C=C/c1ccccc1C
1.64	CC(=O)C=Cc1ccc(C#N)cc1
2.27	COc1cccc(/C=C/C(C)=O)c1
2.68	CC(=O)/C=C/c1cccc(C)c1

Compound	logP
CC(=O)/C=C/c1ccc(Cl)cc1	2.8
